This is an account of results in patent publication US12402621B2, “Method for increasing longevity and/or bud opening of cut flowers” (LETAVIS AB, priority 2019, dated 2025).

What all share (assay type): in vivo
For assay [1], the system named is roses of the type Furiosa. Put plainly: Effect of oxytocin on the florescence of cut roses of the type Furiosa (appearance scores after pretreatment in cold-storage room). Here is the method: The stalks of newly delivered roses of the type Furiosa were cut (1 cm from the lowest part of the stem) and thereafter the roses were placed in buckets containing water with different doses of oxytocin (0, 0.1, 1 and 10 μM) and kept in a cold-storage room for […]. Nine roses were included in each treatment group.
Thereafter, the roses were moved to a home like setting with normal room temperature. The stalks of the roses were again cut and the roses were placed in individual vases filled with tap water.
The assessment criteria were: degree of bud opening (i.e. degree of flower turn-out), degree of drooping (i.e. how bent the stalk was, freshness of the petals, freshness of the sepals and freshness of the stem leaves. Each assessment criterion was given a score from 1-5 according to the description. An average score based on all the assessment criteria was also calculated.

For assay [2], the system named is roses of the type Upper class. Put plainly: Effect of oxytocin on the survival of cut roses of the type Upper class (appearance scores after pretreatment in cold-storage room). Particulars: oxytocin 1-10 μmolar in water, cold-storage room 18 days, then tap water at room temperature; assessed at 4, 9, 15 and 20 days; FIG. 2. An excerpt: The stalks of newly delivered roses of the type Upper class were cut (1 cm from the lowest part of the stem) and thereafter the roses were placed in buckets containing water with different doses of oxytocin (For doses see Table 1 and kept in a cold-storage room for 18 days. Four roses were included in each treatment group.
Thereafter, the roses were moved to a home-like setting with normal room temperature. The stalk of the roses was cut again and the roses were placed in individual vases filled with tap water.
The assessment criteria were: degree of bud opening (i.e. degree of flower turn-out), degree of drooping (i.e. how bent the stalk was, freshness of the petals, freshness of the sepals and freshness of stem leaves. Each assessment criterion was given a score from 1-5 according to the description. An average score based on all the assessment criteria was also calculated.

Assay [3] has as its system roses of the type Belle Rose. Put plainly: Effect of oxytocin on the survival of cut roses of the type Belle Rose (appearance scores after pretreatment in cold-storage room). To be noted: oxytocin 1, 5 and 10 μM in the presence of Chrysal, in particular 10 μM; cold-storage room 3 days, then tap water at room temperature; FIGS. 5 and 6. Here is the method: The stalks of newly delivered roses of the type Belle Rose were cut (1 cm from the lowest part of the stem) and thereafter the roses were placed in buckets containing tap water or tap water with different doses of oxytocin (0, 1, 5 and 10 μM in the presence of Chrysal) and kept in a cold-storage room for 3 days. Eight to nine roses were included in each bucket.
Thereafter, the roses were moved to a home like setting with normal room temperature. The stalks of the roses were again cut and the rose bouquets were placed in vases filled with tap water.
The appearance of the roses was assessed at 0, 2, 4, 7 10 and 13 days after being placed in the home like setting according to the criteria shown in Table 2 (see Example 1). The assessment criteria were: degree of bud opening (i.e. degree of flower turn-out), degree of drooping (i.e. how bent the stalk was, freshness of the petals, freshness of the sepals and freshness of the stem leaves. Each assessment criterion was given a score from 1-5 according to the description. An average score based on all the assessment criteria was also calculated.

As to oxytocin, the “duration of time during which the roses kept fresh and attractive (days with bud opening score above 1.5)” value in assay [1] (in particular with 10 μM oxytocin, after being put in tap water in home-like setting, FIG. 4) was “increased in response to oxytocin”. The “degree of bud opening” value in assay [1] (oxytocin 0.1, 1 and 10 μM, in particular 10 μM, pretreatment in cold-storage room, then tap water at room temperature, FIG. 3) is “increased the degree of bud opening”. Besides, the “effect on degree of bud opening by length of oxytocin treatment” value in assay [1] (treatment with oxytocin for 3 days versus 6 hours in cold-storage room, FIG. 3) is “more pronounced after treatment with oxytocin for 3 days than for 6 hours”. The “individual assessments (bud opening, drooping, freshness of petals, sepals, stem leaves)” value in assay [2] is “in a positive direction”. In assay [3], the “duration of time during which the roses kept fresh and attractive” value is given as “increased in response to oxytocin”; the level of florescence entry was “increased the level of florescence”.
